Results on 30 compounds are retold here after patent US20080221086A1, “Novel Inhibitors of Glutaminyl Cyclase” (PROBIODRUG AG, priority 2006, published 2008).

Molecules are shown by their SMILES.

By IC50 is commonly meant the concentration at which inhibition is half-maximal.

Sequence of hQC (Q16769 29-361): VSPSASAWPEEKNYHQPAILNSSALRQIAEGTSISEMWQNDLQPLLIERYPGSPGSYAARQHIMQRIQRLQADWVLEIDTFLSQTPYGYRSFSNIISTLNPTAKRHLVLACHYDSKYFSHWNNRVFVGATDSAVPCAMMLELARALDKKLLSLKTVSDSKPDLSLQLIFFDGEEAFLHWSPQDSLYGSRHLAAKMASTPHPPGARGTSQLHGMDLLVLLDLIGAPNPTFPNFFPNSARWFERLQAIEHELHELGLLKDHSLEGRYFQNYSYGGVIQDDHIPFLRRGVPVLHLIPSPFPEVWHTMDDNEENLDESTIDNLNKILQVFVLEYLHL

The first assay addresses hQC (Homo sapiens, UniProt Q16769). Briefly: Fluorometric assay of glutaminyl cyclase (QC) inhibition, H-Gln-βNA or H-Gln-AMC substrate. The format is biochemical. The following applies: compound from preparative synthesis, purified by chromatography; fluorescent assay; read-out: IC50 hQC. As for the experimental part:
All compounds were immediately tested regarding their activity as hQC inhibitors.
The purity of the compounds was determined by HPLC-MS. The IC50 value against hQC was measured using the fluorescent assay.
All measurements were performed with a BioAssay Reader HTS-7000Plus for microplates (Perkin Elmer) at 30° C. QC activity was evaluated fluorometrically using H-Gln-βNA. The samples consisted of 0.2 mM fluorogenic substrate, 0.25 U pyroglutamyl aminopeptidase (Unizyme, Hørsholm, Denmark) in 0.2 M Tris/HCl, pH 8.0 containing 20 mM EDTA and an appropriately diluted aliquot of QC in a final volume of 250 μl. Excitation/emission wavelengths were 320/410 nm. The assay reactions were initiated by addition of glutaminyl cyclase. QC activity was determined from a standard curve of β-naphthylamine under assay conditions. One unit is defined as the amount of QC catalyzing the formation of 1 μmol pGlu-βNA from H-Gln-βNA per minute under the described conditions.
In a second fluorometric assay, QC was activity was determined using H-Gln-AMC as substrate. Reactions were carried out at 30° C. utilizing the NOVOStar reader for microplates (BMG labtechnologies). The samples consisted of varying concentrations of the fluorogenic substrate, 0.1 U pyroglutamyl aminopeptidase (Qiagen) in 0.05 M Tris/HCl, pH 8.0 containing 5 mM EDTA and an appropriately diluted aliquot of QC in a final volume of 250 μl. Excitation/emission wavelengths were 380/460 nm. The assay reactions were initiated by addition of glutaminyl cyclase. QC activity was determined from a standard curve of 7-amino-4-methylcoumarin under assay conditions. The kinetic data were evaluated using GraFit software.
For inhibitor testing, the sample composition was the same as described above, except of the putative inhibitory compound added. For a rapid test of QC-inhibition, samples contained 4 mM of the respective inhibitor and a substrate concentration at 1 KM. For detailed investigations of the inhibition and determination of Ki-values, influence of the inhibitor on the auxiliary enzymes was investigated first. In every case, there was no influence on either enzyme detected, thus enabling the reliable determination of the QC inhibition. The inhibitory constant was evaluated by fitting the set of progress curves to the general equation for competitive inhibition using GraFit software.
For the compound `CC1=CC(C)C(C2/C(=N/C(C)C)NC(=O)N2c2ccc3[nH]cnc3c2)CC1` (stereo not shown) [Compound 254, 1-(1H-Benzoimidazol-5-yl)-5-(2,4-dimethyl-cyclohex-3-enyl)-4-(isopropylimino)-imidazolidin-2-one], the IC50 was 0.997 µM.

The same assay, now with this note: read-out: IC50.
For the compound `CCC1/C(=N\CC(=O)N2CCc3ccccc3C2)NC(=O)N1CCCn1ccnc1` (stereo not shown) [Compound 75, 4-2-(3,4-Dihydro-1H-isoquinolin-2-yl)-2-oxo-ethylimino-5-ethyl-1-(3-imidazol-1-yl-propyl)-imidazolidin-2-one], the IC50 was 7.6 µM.
For `COc1cc(C/N=C2\NC(=O)N(CCCn3ccnc3)C2c2cccc(F)c2F)cc(OC)c1OC` (stereo not shown) [Compound 25, 5-(2,3-Difluoro-phenyl)-1-(3-imidazol-1-yl-propyl)-4-3,4,5-trimethoxy-benzylimino-imidazolidin-2-one], the IC50 came out at 9.4 µM.
On the same count and under the same terms, the same measure for `O=C1N/C(=N\C(c2ccccc2)c2ccccc2)C(c2cccc(F)c2F)N1CCCn1ccnc1` (stereo not shown) [Compound 83, 4-Benzhydrylimino-5-(2,3-difluoro-phenyl)-1-(3-imidazol-1-yl-propyl)-imidazolidin-2-one]: 7.6 µM; for `CC1=CC(C)C(C2/C(=N/C(C)C)NC(=O)N2c2ccc3[nH]cnc3c2)CC1` (stereo not shown) [Compound 254, 1-(1H-Benzoimidazol-5-yl)-5-(2,4-dimethyl-cyclohex-3-enyl)-4-(isopropylimino)-imidazolidin-2-one]: 0.004 µM.
Turning to `CC(CC1/C(=N/C2CCCc3ccccc32)NC(=S)N1c1ccc2[nH]cnc2c1)CC(C)(C)C` (stereo not shown) [Compound 150, 1-(1H-Benzoimidazol-5-yl)-4-1,2,3,4-tetrahydro-naphthalen-1-ylimino-5-(2,4,4-trimethyl-pentyl)-imidazolidine-2-thione], the IC50 was found to be 6.7 µM.
Turning to `Cc1cccc(C2/C(=N\Cn3nnc4ccccc43)NC(=S)N2c2ccc3[nH]cnc3c2)c1` (stereo not shown) [Compound 285, 1-(1H-Benzoimidazol-5-yl)-4-benzotriazol-1-ylmethylimino-5-m-tolyl-imidazolidine-2-thione], the IC50 is 1.3 µM.
As for `O=C1N/C(=N\CCC(c2ccccc2)c2ccccc2)C(c2ccccc2F)N1CCCn1ccnc1` (stereo not shown) [Compound 112, 4-3,3-Diphenyl-propylimino-5-(2-fluoro-phenyl)-1-(3-imidazol-1-yl-propyl)-imidazolidin-2-one], the IC50 was determined as 6.7 µM.
In the case of `O=C1N/C(=N\C2CCCCC2)C(c2cc(F)cc(F)c2)N1CCCn1ccnc1` (stereo not shown) [Compound 4, 4-Cyclohexylimino-5-(3,5-difluoro-phenyl)-1-(3-imidazol-1-yl-propyl)-imidazolidin-2-one], the IC50 amounted to 8.1 µM.
Consider `O=C1N/C(=N\CCC(c2ccccc2)c2ccccc2)C(C2CCC=CO2)N1CCCn1ccnc1` (stereo not shown) [Compound 106, 5-(3,4-Dihydro-2H-pyran-2-yl)-4-3,3-diphenyl-propylimino-1-(3-imidazol-1-yl-propyl)-imidazolidin-2-one], for which the IC50 was 7.6 µM.
Turning to `N#Cc1cccc(/N=C2\NC(=S)N(c3ccc4[nH]cnc4c3)C2c2ccc3c(c2)OCCO3)c1` (stereo not shown) [Compound 126, 3-(1-(1H-benzo[d]imidazol-5-yl)-5-(2,3-dihydrobenzo[b][1,4]dioxin-6-yl)-2-thioxoimidazolidin-4-ylideneamino)benzo-nitrile], the IC50 came to 4.9 µM.
Regarding `O=C1N/C(=N/CCN2CCOCC2)C(c2cccc(Br)c2)N1c1ccc2nc[nH]c2c1` (stereo not shown) [Compound 341, 1-(3H-Benzoimidazol-5-yl)-5-(3-bromo-phenyl)-4-2-morpholin-4-yl-ethylimino-imidazolidin-2-one], the IC50 is 1.3 µM.
With `O=C1N/C(=N\C2CCc3ccccc32)C(c2ccc3[nH]ccc3c2)N1c1ccc2[nH]cnc2c1` (stereo not shown) [Compound 218, 1-(1H-Benzoimidazol-5-yl)-4-indan-1-ylimino-5-(1H-indol-5-yl)-imidazolidin-2-one], the IC50 turned out to be 0.004 µM.
For `O=C1N/C(=N\C2CCCC2)C(c2cc(F)cc(F)c2)N1c1ccc2[nH]cnc2c1` (stereo not shown) [Compound 244, 1-(1H-Benzoimidazol-5-yl)-4-cyclopentylimino-5-(3,5-difluoro-phenyl)-imidazolidin-2-one], the IC50 was 0.4 µM.
Consider `S=C1N/C(=N/CCCc2ccccc2)C(c2cc3ccccc3s2)N1c1ccc2[nH]cnc2c1` (stereo not shown) [Compound 258, 5-Benzobthiophen-2-yl-1-(1H-benzoimidazol-5-yl)-4-3-phenyl-propylimino-imidazolidine-2-thione], for which the IC50 stood at 3.1 µM.
As to `O=C(CN=C1NC(=S)N(c2ccc3nc[nH]c3c2)C1c1c(F)ccc(Cl)c1F)N1CCCCC1` (stereo not shown) [Compound 185, 2-(1-(1H-benzo[d]imidazol-6-yl)-5-(3-chloro-2,6-difluorophenyl)-2-thioxoimidazolidin-4-ylideneamino)-1-(piperidin-1-yl)ethanone], the IC50 was found to be 0.4 µM.
With `O=C1N/C(=N\C2CCCCC2O)C(c2ccc3nsnc3c2)N1c1ccc2[nH]cnc2c1` (stereo not shown) [Compound 238], the IC50 turned out to be 0.004 µM.
As to `O=C1N/C(=N\C2CCCC2)C(c2ccc(Cl)c(F)c2)N1c1ccc2[nH]cnc2c1` (stereo not shown) [Compound 318, 1-(1H-Benzoimidazol-5-yl)-5-(4-chloro-3-fluoro-phenyl)-4-cyclopentylimino-imidazolidin-2-one], the IC50 was 0.004 µM.
For the compound `CC(CC1/C(=N/C2CCCCCC2)NC(=O)N1c1ccc2nc[nH]c2c1)CC(C)(C)C` (stereo not shown) [Compound 130, 1-(3H-Benzoimidazol-5-yl)-4-cycloheptylimino-5-(2,4,4-trimethyl-pentyl)-imidazolidin-2-one], the IC50 came out at 7.6 µM.
With `O=C1N/C(=N/Cc2cccnc2)C(c2ccc3ccccc3c2)N1c1ccc2[nH]cnc2c1` (stereo not shown) [Compound 221, 1-(1H-Benzoimidazol-5-yl)-5-naphthalen-2-yl-4-pyridin-3-ylmethylimino-imidazolidin-2-one], the half-maximal inhibitory concentration (IC50) stood at 6.7 µM.
Turning to `O=C1N/C(=N\C2CCCC2)C(c2ccc3ccccc3c2)N1c1ccc2[nH]cnc2c1` (stereo not shown) [Compound 171, 1-(1H-Benzoimidazol-5-yl)-4-cyclopentylimino-5-naphthalen-2-yl-imidazolidin-2-one], the IC50 stood at 0.004 µM.
As for `O=C1N/C(=N\Cc2ccccc2)C(c2cccc(Br)c2)N1c1ccc2nc[nH]c2c1` (stereo not shown) [Compound 177, 1-(1H-benzo[d]imidazol-6-yl)-4-(benzylimino)-5-(3-bromophenyl)imidazolidin-2-one], the IC50 was 0.004 µM.
`O=C(C/N=C1\C(c2cccc(Br)c2)NC(=S)N1c1ccc2[nH]cnc2c1)N1CCSCC1` (stereo not shown) [Compound 152, 2-(3-(1H-benzo[d]imidazol-5-yl)-5-(3-bromophenyl)-2-thioxoimidazolidin-4-ylideneamino)-1-thiomorpholinoetha-none]: the IC50 stood at 2.2 µM.
Consider `Cc1ccc2c(C3/C(=N\Cc4ccccc4)NC(=O)N3c3ccc4[nH]cnc4c3)c[nH]c2c1` (stereo not shown) [Compound 230, 1-(1H-Benzoimidazol-5-yl)-4-benzylimino-5-(6-methyl-1H-indol-3-yl)-imidazolidin-2-one], for which the IC50 came to 0.004 µM.
Regarding `O=C1N/C(=N\C2CCCCC2)C(c2ccccc2F)N1CCCn1ccnc1` (stereo not shown) [Compound 8, 4-Cyclohexylimino-5-(2-fluoro-phenyl)-1-(3-imidazol-1-yl-propyl)-imidazolidin-2-one], the IC50 was determined as 8.6 µM.
The same measure, in the same setting: the result for `CCCCC1/C(=N\CCc2c[nH]c3ccccc23)NC(=O)N1CCCn1ccnc1` (stereo not shown) [Compound 59, 5-Butyl-1-(3-imidazol-1-yl-propyl)-4-2-(1H-indol-3-yl)-ethylimino-imidazolidin-2-one] reads 4.9 µM; that for `CC1=CC(C)C(C2/C(=N/CC(=O)N3CCC(O)CC3)NC(=O)N2c2ccc3nc[nH]c3c2)CC1` (stereo not shown) [Compound 316, 1-(3H-Benzoimidazol-5-yl)-5-(2,4-dimethyl-cyclohex-3-enyl)-4-2-(4-hydroxy-piperidin-1-yl)-2-oxo-ethylimino-imidazolidin-2-one], 7.6 µM; that for `COc1cc(C/N=C2\NC(=O)N(CCCn3ccnc3)C2c2ccccc2F)cc(OC)c1OC` (stereo not shown) [Compound 28, 5-(2-Fluoro-phenyl)-1-(3-imidazol-1-yl-propyl)-4-3,4,5-trimethoxy-benzylimino-imidazolidin-2-one], 3.1 µM.
The same measure, in the same setting: the same measure for `O=C1N/C(=N/Cn2nnc3ccccc32)C(c2ccc(Cl)cc2)N1c1ccc2[nH]cnc2c1` (stereo not shown) [Compound 128, 1-(1H-Benzoimidazol-5-yl)-4-benzotriazol-1-ylmethylimino-5-(4-chloro-phenyl)-imidazolidin-2-one]: 3.1 µM; for `O=C(C/N=C1/NC(=O)N(CCCn2ccnc2)C1c1cc(F)cc(F)c1)N1CCc2ccccc2C1` (stereo not shown) [Compound 69, 5-(3,5-Difluoro-phenyl)-4-2-(3,4-dihydro-1H-isoquinolin-2-yl)-2-oxo-ethylimino-1-(3-imidazol-1-yl-propyl)-imidazolidin-2-one]: 4.9 µM; for `COc1ccc(C2C(=NCC(=O)N3CCSCC3)NC(=S)N2c2ccc3[nH]cnc3c2)c(F)c1` (stereo not shown) [Compound 225, 2-(1-(1H-Benzo[d]imidazol-5-yl)-5-(2-fluoro-4-methoxyphenyl)-2-thioxoimidazolidin-4-ylideneamino)-1-thiomorpholinoethanone]: 6.7 µM.
